Measurements: ChEMBL document CHEMBL5360572, “Advances of bioorthogonal coupling reactions in drug development” (Eur J Med Chem, 2023)

Assays:
[1] = target: T1, M-phase inducer phosphatase 2 (Homo sapiens, UniProt P30305); test: Inhibition of full-length recombinant human CDC25B using OMFP as substrate incubated for 5 to 8 mins by fluorescence based assay
T1 sequence (P30305 whole entry): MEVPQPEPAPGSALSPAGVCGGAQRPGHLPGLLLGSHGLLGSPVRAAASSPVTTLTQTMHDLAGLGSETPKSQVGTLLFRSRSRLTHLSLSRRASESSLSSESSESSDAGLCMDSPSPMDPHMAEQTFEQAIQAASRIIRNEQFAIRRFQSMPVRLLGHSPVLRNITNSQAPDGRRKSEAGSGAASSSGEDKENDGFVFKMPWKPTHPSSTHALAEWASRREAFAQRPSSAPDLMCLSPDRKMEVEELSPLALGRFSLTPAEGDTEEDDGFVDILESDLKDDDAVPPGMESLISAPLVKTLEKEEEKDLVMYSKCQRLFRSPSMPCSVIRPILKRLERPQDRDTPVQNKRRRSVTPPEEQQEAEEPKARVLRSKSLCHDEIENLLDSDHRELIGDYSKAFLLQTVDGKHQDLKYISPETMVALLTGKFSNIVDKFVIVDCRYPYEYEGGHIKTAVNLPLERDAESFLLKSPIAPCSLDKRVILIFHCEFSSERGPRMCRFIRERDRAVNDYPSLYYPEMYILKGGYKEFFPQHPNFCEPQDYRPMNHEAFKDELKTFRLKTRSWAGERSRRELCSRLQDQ

[2] = target: T2, M-phase inducer phosphatase 1 (Homo sapiens, UniProt P30304); test: Inhibition of full-length recombinant human CDC25A using OMFP as substrate incubated for 5 to 8 mins by fluorescence based assay
T2 sequence (P30304 whole entry): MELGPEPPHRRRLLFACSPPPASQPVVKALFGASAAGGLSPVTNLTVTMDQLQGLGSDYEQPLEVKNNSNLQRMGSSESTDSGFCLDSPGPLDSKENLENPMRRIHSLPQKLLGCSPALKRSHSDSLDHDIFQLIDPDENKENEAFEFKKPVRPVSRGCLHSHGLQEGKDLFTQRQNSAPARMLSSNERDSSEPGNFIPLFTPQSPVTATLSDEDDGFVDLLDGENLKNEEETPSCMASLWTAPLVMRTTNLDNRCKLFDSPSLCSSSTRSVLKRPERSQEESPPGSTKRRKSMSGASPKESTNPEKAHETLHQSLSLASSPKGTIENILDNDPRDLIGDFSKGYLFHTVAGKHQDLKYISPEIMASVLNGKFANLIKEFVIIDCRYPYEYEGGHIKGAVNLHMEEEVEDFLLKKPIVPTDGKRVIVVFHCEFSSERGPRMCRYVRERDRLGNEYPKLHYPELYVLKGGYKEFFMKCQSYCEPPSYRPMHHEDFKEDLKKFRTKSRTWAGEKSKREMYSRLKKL

[3] = target: T3, M-phase inducer phosphatase 3 (Homo sapiens, UniProt P30307); test: Inhibition of full-length recombinant human CDC25C using OMFP as substrate incubated for 5 to 8 mins by fluorescence based assay
T3 sequence (P30307 whole entry): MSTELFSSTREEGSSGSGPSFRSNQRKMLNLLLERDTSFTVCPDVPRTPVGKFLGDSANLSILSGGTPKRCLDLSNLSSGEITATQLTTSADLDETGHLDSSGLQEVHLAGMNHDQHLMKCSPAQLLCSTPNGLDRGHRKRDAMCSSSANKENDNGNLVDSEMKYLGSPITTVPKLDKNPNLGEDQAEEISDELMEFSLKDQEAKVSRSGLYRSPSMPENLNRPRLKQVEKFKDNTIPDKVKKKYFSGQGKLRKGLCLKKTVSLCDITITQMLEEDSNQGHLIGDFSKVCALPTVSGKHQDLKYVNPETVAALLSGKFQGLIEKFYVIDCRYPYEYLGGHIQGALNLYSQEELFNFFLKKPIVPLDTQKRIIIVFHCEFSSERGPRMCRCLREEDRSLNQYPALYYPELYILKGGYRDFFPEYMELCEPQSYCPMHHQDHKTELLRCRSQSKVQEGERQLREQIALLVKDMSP

CC(NC1=C(Cl)C(=O)c2cccnc2C1=O)c1cn(-c2ccc(CO)cc2)nn1 (stereo not drawn)
IC50 [1]: 190 nM | IC50 [2]: 150 nM | IC50 [3]: 60 nM
